Experimental data from patent US12247045B2, “MAP4K4 inhibitors” (Imperial College Innovations Limited, priority 2018, dated 2025).
pIC50: −log10 of the molar value.

Molecular target: T1, human MAP4K4 kinase domain (Homo sapiens, UniProt O95819)
T1 construct: 0.5 nM human MAP4K4 kinase domain (Invitrogen); purchased Invitrogen
Assay: MAP4K4 kinase activity, CisBio HTRF Transcreener ADP assay
Assay type: biochemical
Conditions: IC50 category; ATP at Km (10 μM), 0.5 nM kinase domain, 2 h; read-out: MAP4K4
Excerpt: Compounds of the present invention were screened for their inhibitory activity against MAP4K4, versus selected off-target hits found with early members of this chemical series. MAP4K4 kinase activity was monitored using the CisBio HTRF Transcreener ADP assay, a competitive immunoassay with a reproducible Z′>0.6. In the detection step, endogenous ADP and d2-labeled ADP compete for binding an anti-ADP monoclonal antibody labelled with Eu^3+ cryptate. A ratiometric fluorescent read-out is used at 665 and 620 nm. Reactions were performed in the presence of 1% DMSO with ATP added at Km (10 μM), 0.5 nM human MAP4K4 kinase domain (Invitrogen), 1 μM biotin-myelin basic protein as substrate (Invitrogen), and extension of reaction time to 2 h. Assays were run in Greiner low volume plates with a final reaction volume of 10 μl. The MAP4K4 inhibition data are provided in Table 41 below for selected compounds of the present invention. The data has been categorised based on the IC50 value of the compound as “A”, “B” or “C”. IC50: A≤100 nM; 100 nM<B≤1 μM; 1 μM<C; nd=not determined.

T1 sequence (O95819 25-289 limits assumed): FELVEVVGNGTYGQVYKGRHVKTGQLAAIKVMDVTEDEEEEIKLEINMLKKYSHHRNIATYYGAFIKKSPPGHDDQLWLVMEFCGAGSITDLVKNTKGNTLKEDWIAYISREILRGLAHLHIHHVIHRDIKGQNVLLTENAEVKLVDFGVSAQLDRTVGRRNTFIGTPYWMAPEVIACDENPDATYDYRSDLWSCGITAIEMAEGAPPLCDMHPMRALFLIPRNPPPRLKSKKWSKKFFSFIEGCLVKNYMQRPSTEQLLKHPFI

## CC(=O)N1CC(n2cc(-c3cn(-c4cccnc4)c4nc[nH]c(=O)c34)cn2)C1 [Ex-35]
  pIC50: 6.00 to 7.00

## O=c1[nH]cnc2c1c(-c1ccncc1)cn2-c1ccccc1 [Ex-4]
  pIC50: ≥ 7.00

## CC(=O)N1CC(n2cc(-c3cn(-c4ccncc4)c4nc[nH]c(=O)c34)cn2)C1 [Ex-12]
  pIC50: 6.00 to 7.00

## COCCOc1ccc(-c2cn(-c3cccnc3)c3ncn(COP(=O)(O)O)c(=O)c23)cc1 [Ex-103]
  pIC50: < 6.00

## CC(C)(O)CCOc1ccc(-c2cn(-c3ccncc3)c3nc[nH]c(=O)c23)cc1 [Ex-69]
  pIC50: ≥ 7.00

## COc1ccc(-c2cn(-c3ccccc3)c3nc[nH]c(=O)c23)cn1 [Ex-18]
  pIC50: ≥ 7.00

## CC(=O)OCCn1cc(-c2cn(-c3ccc(F)cc3)c3nc[nH]c(=O)c23)cn1 [Ex-47, 2-(4-(7-(4-fluorophenyl)-4-oxo-4,7-dihydro-3H-pyrrolo[2,3-d]pyrimidin-5-yl)-1H-pyrazol-1-yl)ethyl Acetate]
  pIC50: 6.00 to 7.00

## Nc1ccc(-c2cn(-c3ccccc3)c3c(=O)[nH]cnc23)cn1 [Ex-138, 7-(6-aminopyridin-3-yl)-5-phenyl-3,5-dihydro-4H-pyrrolo[3,2-d]pyrimidin-4-one]
  pIC50: ≥ 7.00

## COc1cnc(-c2cn(-c3ccccc3)c3nc[nH]c(=O)c23)cn1 [Ex-107]
  pIC50: 6.00 to 7.00
